Measured values taken from PubChem BioAssay AID248 (DTP/NCI, 2004).
Values joined by “and” are separate entries in the source; they are usually repeats but may differ in a detail not shown here. Identical values can stand only once. Inconclusive results and toxic doses are left out. Rule as the data show it: active = T/C of 150% or more; inactive = T/C below 125%.

Test system: L1210 leukemia ip in BDF1 mice, survival T/C
Experiment: NCI In Vivo Anticancer Drug Screen. Data for tumor model L1210 Leukemia (intraperitoneal) in B6D2F1 (BDF1) mice
Settings: endpoint: mean survival time, higher = longer survival
Procedure, shortened: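 Value reflects the ratio of survival in compound-treated mice to survival in vehicle-treated controls, with both groups carrying the same transplanted tumor.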

[1] = dose: 100.0 mg/kg/injection, schedule: Q01DX009 (ip), vehicle: saline with Tween-80
[2] = dose: 200.0 mg/kg/injection, schedule: Q01DX009 (ip), vehicle: saline with Tween-80
[3] = dose: 400.0 mg/kg/injection, schedule: Q01DX009 (ip), vehicle: saline with Tween-80
[4] = dose: 100.0 mg/kg/injection, schedule: Q04DX002 (ip), vehicle: Klucel (hydroxypropylcellulose) (HPC)
[5] = dose: 200.0 mg/kg/injection, schedule: Q04DX002 (ip), vehicle: Klucel (hydroxypropylcellulose) (HPC)
[6] = dose: 400.0 mg/kg/injection, schedule: Q04DX002 (ip), vehicle: Klucel (hydroxypropylcellulose) (HPC)
[7] = dose: 50.0 mg/kg/injection, schedule: Q01DX009 (ip), vehicle: saline
[8] = dose: 100.0 mg/kg/injection, schedule: Q01DX009 (ip), vehicle: saline
[9] = dose: 200.0 mg/kg/injection, schedule: Q01DX009 (ip), vehicle: saline
[10] = dose: 100.0 mg/kg/injection, schedule: Q01DX009 (ip), vehicle: Klucel (hydroxypropylcellulose) (HPC)
[11] = dose: 100.0 mg/kg/injection, schedule: Q04DX003 (ip), vehicle: Klucel (hydroxypropylcellulose) (HPC)
[12] = dose: 200.0 mg/kg/injection, schedule: Q04DX003 (ip), vehicle: Klucel (hydroxypropylcellulose) (HPC)
[13] = dose: 400.0 mg/kg/injection, schedule: Q01DX009 (ip), vehicle: Klucel (hydroxypropylcellulose) (HPC)
[14] = dose: 400.0 mg/kg/injection, schedule: Q04DX003 (ip), vehicle: Klucel (hydroxypropylcellulose) (HPC)
[15] = dose: 75.0 mg/kg/injection, schedule: Q01DX001 (ip), vehicle: saline
[16] = dose: 150.0 mg/kg/injection, schedule: Q01DX001 (ip), vehicle: saline
[17] = dose: 100.0 mg/kg/injection, schedule: Q04DX003 (ip), vehicle: saline with Tween-80
[18] = dose: 200.0 mg/kg/injection, schedule: Q04DX003 (ip), vehicle: saline with Tween-80
[19] = dose: 400.0 mg/kg/injection, schedule: Q04DX003 (ip), vehicle: saline with Tween-80
[20] = dose: 100.0 mg/kg/injection, schedule: Q01DX001 (ip), vehicle: Klucel (hydroxypropylcellulose) (HPC)
[21] = dose: 200.0 mg/kg/injection, schedule: Q01DX001 (ip), vehicle: Klucel (hydroxypropylcellulose) (HPC)
[22] = dose: 100.0 mg/kg/injection, schedule: Q04DX003 (ip), vehicle: saline
[23] = dose: 200.0 mg/kg/injection, schedule: Q04DX003 (ip), vehicle: saline

Measured: T/C

O=C1c2ccccc2C(=O)c2cc3nc4c5ccccc5c5ccccc5c4nc3cc21
inactive: [1] 93 % of control | dose: 100.0 mg/kg/injection, schedule: Q04DX002 (ip), vehicle: saline with Tween-80 103 % of control | [2] 90 % of control | dose: 200.0 mg/kg/injection, schedule: Q04DX002 (ip), vehicle: saline with Tween-80 97 % of control | [3] 97 % of control | dose: 400.0 mg/kg/injection, schedule: Q04DX002 (ip), vehicle: saline with Tween-80 100 % of control

COc1c(NC(=O)c2ccc([N+](=O)[O-])cc2)cccc1[N+](=O)[O-]
inactive: [4] 89 % of control | [5] 95 % of control | [6] 89 % of control

CCN=C1C=C/C(=C(/c2ccc(NCC)c(C)c2)c2cc(O)c(S(=O)(=O)O)cc2S(=O)(=O)O)C=C1C
inactive: [7] 97 % of control | [8] 97 % of control | [9] 104 % of control

CC(Cl)CN(CC(C)Cl)C(=O)OCC(NC(=O)OCc1ccccc1)C(=O)OCc1ccccc1 (stereo unspecified)
inactive: [10] 88 % of control | [11] 87 % of control | [12] 96 % of control | [13] 91 % of control | [14] 91 % of control

CC(CO)CCC(O)C(C)C1CCC2C3CCC4CC(O)CCC4(C)C3CCC12C (stereo unspecified)
inactive: dose: 6.25 mg/kg/injection, schedule: Q01DX001 (ip), vehicle: saline with Tween-80 91 % of control | dose: 12.5 mg/kg/injection, schedule: Q01DX001 (ip), vehicle: saline with Tween-80 91 % of control | dose: 25.0 mg/kg/injection, schedule: Q01DX001 (ip), vehicle: saline with Tween-80 90 % of control | dose: 100.0 mg/kg/injection, schedule: Q01DX001 (ip), vehicle: saline with Tween-80 92 % of control | dose: 400.0 mg/kg/injection, schedule: Q01DX001 (ip), vehicle: saline with Tween-80 92 % of control

NC1=NC(c2ccc(Cl)cc2)N(c2ccc(S(N)(=O)=O)cc2)C(N)=N1 (stereo unspecified)
inactive: [15] 102 % of control | [16] 96 % of control

Cc1ccc(C)c(NC(=O)Nc2cccc(O)c2)c1
inactive: [10] 102 % of control | [4] 109 % of control | dose: 200.0 mg/kg/injection, schedule: Q01DX009 (ip), vehicle: Klucel (hydroxypropylcellulose) (HPC) 103 % of control | [5] 102 % of control | [13] 94 % of control | [6] 109 % of control

CC1(C)CC(N=Cc2ccccc2O)CC(C)(C)N1O.CC1(C)CC(N=Cc2ccccc2O)CC(C)(C)N1O.[Pd]
inactive: [17] 88 % of control | [18] 90 % of control | [19] 88 % of control

O=C(NCCc1ccc(S(=O)(=O)Nc2ccc(N=Nc3ccc(N=Nc4ccccc4)cc3)cc2)cc1)C(N1CC1)(N1CC1)N1CC1
inactive: dose: 15.0 mg/kg/injection, schedule: Q01DX001 (ip), vehicle: saline 104 % of control | dose: 30.0 mg/kg/injection, schedule: Q01DX001 (ip), vehicle: saline 106 % of control

O=C(COc1ccccc1)Oc1c(Cl)c(Cl)c(Cl)c(Cl)c1Cl
inactive: [20] 96 % of control | [11] 103 % of control | [21] 92 % of control | [12] 103 % of control | dose: 400.0 mg/kg/injection, schedule: Q01DX001 (ip), vehicle: Klucel (hydroxypropylcellulose) (HPC) 98 % of control | [14] 95 % of control

COC(=O)C(C)(N)Cc1ccc(O)cc1 (stereo unspecified)
inactive: [7] 102 % of control | [8] 97 % of control | [22] 96 % of control | [9] 105 % of control | [23] 93 % of control

CC(=O)OC1C=CC(=O)OC1C1OC1C (stereo unspecified)
inactive: dose: 4.0 mg/kg/injection, schedule: Q01DX Z (ip), vehicle: saline 100 % of control | dose: 6.0 mg/kg/injection, schedule: Q01DX Z (ip), vehicle: saline 111 % of control | dose: 9.0 mg/kg/injection, schedule: Q01DX Z (ip), vehicle: saline 110 % of control | dose: 13.0 mg/kg/injection, schedule: Q01DX Z (ip), vehicle: saline 100 % of control and 108 % of control | dose: 19.0 mg/kg/injection, schedule: Q01DX Z (ip), vehicle: saline 103 % of control | dose: 29.0 mg/kg/injection, schedule: Q01DX Z (ip), vehicle: saline 103 % of control

COc1ccc(NC(=O)CCc2ccc(N3C(N)=NC(N)=NC3(C)C)cc2)cc1S(=O)(=O)F
inactive: dose: 50.0 mg/kg/injection, schedule: Q01DX001 (ip), vehicle: Klucel (hydroxypropylcellulose) (HPC) 95 % of control | [20] 106 % of control | [21] 98 % of control

NC1c2ccccc2CC1C(=O)O (stereo unspecified)
inactive: dose: 100.0 mg/kg/injection, schedule: Q01DX001 (ip), vehicle: saline 95 % of control | dose: 200.0 mg/kg/injection, schedule: Q01DX001 (ip), vehicle: saline 97 % of control

CCOC(=O)c1cnc(SCC)nc1N
inactive: [22] 101 % of control | [23] 98 % of control | dose: 400.0 mg/kg/injection, schedule: Q04DX003 (ip), vehicle: saline 103 % of control

COC(CCC#N)c1ccccc1 (stereo unspecified)
inactive: [1] 97 % of control | [17] 105 % of control | [2] 100 % of control | [18] 97 % of control | [3] 101 % of control | [19] 102 % of control

COC1(OC)C2C=CC1C1C2C2C1C1C=CC2C1(OC)OC (stereo unspecified)
inactive: [1] 103 % of control | [17] 94 % of control | [2] 95 % of control | [18] 92 % of control | [3] 100 % of control | [19] 89 % of control

CCCCCCCCCCCCOP(OCCCCCCCCCCCC)OCCCCCCCCCCCC
inactive: [8] 90 % of control | [9] 88 % of control | dose: 400.0 mg/kg/injection, schedule: Q01DX009 (ip), vehicle: saline 93 % of control

O=C(NCCCCC(NC(=O)c1ccccc1)C(=O)NCCCCCCNCCCCCCNC(=O)C(CCCCNC(=O)c1ccccc1)NC(=O)c1ccccc1)c1ccccc1 (stereo unspecified)
inactive: dose: 10.0 mg/kg/injection, schedule: Q01DX Z (ip), vehicle: saline 96 % of control | dose: 30.0 mg/kg/injection, schedule: Q01DX Z (ip), vehicle: saline 102 % of control | dose: 100.0 mg/kg/injection, schedule: Q01DX Z (ip), vehicle: saline 100 % of control | dose: 300.0 mg/kg/injection, schedule: Q01DX Z (ip), vehicle: saline 100 % of control

CN1CN(c2ccccc2)C2(CCNCC2)C1=O
inactive: [15] 102 % of control | [16] 96 % of control

C(=N\Nc1ccccc1)/c1cccc[n+]1Cc1ccccc1
inactive: dose: 75.0 mg/kg/injection, schedule: Q01DX001 (ip), vehicle: other 95 % of control | dose: 150.0 mg/kg/injection, schedule: Q01DX001 (ip), vehicle: other 96 % of control

CC(C)(C)SC(C)(C)C
inactive: [1] 96 % of control | [2] 96 % of control | [3] 96 % of control
